The values below come from patent US7901675B2, “Method of using coenzyme Q10 to treat Huntington's disease” (U.S. Department of Veterans Affairs, priority 2004, dated 2011).

Experiment [1] has as its system R6/2 mice. Nature of the experiment: Survival of R6/2 HD mice on oral CoQ10 in chow. Format: in vivo. The procedure:
There is substantial evidence that bioenergetic defects may play a role in the pathogenesis of HD. A possible therapy for diseases in which there is defective energy metabolism is to administer the mitochondrial cofactor coenzyme Q10(CoQ10).
(§1) The present invention is based, in part, on the discovery that increased level of CoQ10 appears to slow the progressive functional decline in […]. We orally administered CoQ10 at 400 mg/kg, and 1, 5, 10, and 20 g/kg in R6/2 mice starting at weaning in chow formulations.

The test system of experiment [2] is R6/2 mice. Put plainly: Disease phenotype in R6/2 HD mice (weight loss, motor deficits, grip strength, brain atrophy, huntingtin inclusions). Format: in vivo. The conditions noted are these: oral CoQ10 in chow. The method, then:
as §1

Where [3] appears, read: oral administration, 400 mg/kg, previously demonstrated.

Structures are written as SMILES.

Consider `COC1=C(OC)C(=O)C(C/C=C(\C)CC/C=C(\C)CC/C=C(\C)CC/C=C(\C)CC/C=C(\C)CC/C=C(\C)CC/C=C(\C)CC/C=C(\C)CC/C=C(\C)CCC=C(C)C)=C(C)C1=O` [CoQ10, Coenzyme Q10], for which, in the experiment with R6/2 mice [1] (setting [3]), the neuroprotection result was “neuroprotective” and the survival extension was 14.5%. Also, the survival extension in the experiment with R6/2 mice [1] (oral in chow from weaning, 5 g/kg (greatest extension), vs untreated R6/2 mice) turned out to be 21.3%. The “survival in comparison to untreated R6/2 mice” value with R6/2 mice [1] (oral in chow from weaning, all doses (400 mg/kg, 1, 5, 10, 20 g/kg)) was “significantly extended survival at all doses”. Further, in the experiment on R6/2 mice [2], the “development of brain atrophy” value is “significantly delayed”, the “development of grip strength deficit” value is recorded as “significantly delayed”, the “development of huntingtin inclusions” value is listed as “significantly delayed” and the “development of motor deficits” value is “significantly delayed”. In the experiment on R6/2 mice [2], the “development of weight loss” value is listed as “significantly delayed”.
